Assay results as given in patent US9765056B2, “Indole and pyrrole compounds, a process for their preparation and pharmaceutical compositions containing them” (LES LABORATOIRES SERVIER, priority 2013, dated 2017).
Counter-ions that a name gives are not always drawn.

Legend:
[1] = molecular target: Bcl-2 protein (histag-Bcl-2, UniProtKB P10415) (Homo sapiens (Human), UniProt P10415); test: Inhibition of Bcl-2 by the fluorescence polarisation technique; format: binding; conditions: fluorescence polarisation test; method A, or method B where underlined (underlining not visible); read-out: IC50 (nM) Bcl-2 FP
Bcl-2 protein, sequence (P10415 whole entry): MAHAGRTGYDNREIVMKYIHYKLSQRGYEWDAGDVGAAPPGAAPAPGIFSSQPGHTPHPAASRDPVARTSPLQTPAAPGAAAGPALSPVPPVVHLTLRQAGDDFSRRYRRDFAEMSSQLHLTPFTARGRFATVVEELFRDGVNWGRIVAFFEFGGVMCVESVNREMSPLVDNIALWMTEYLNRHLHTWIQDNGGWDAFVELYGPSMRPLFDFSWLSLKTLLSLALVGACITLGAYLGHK
From the text: Inhibition of Bcl-2 by the fluorescence polarisation technique

[2] = system: RS4;11 leukaemia tumour line; test: In vitro cytotoxicity, Microculture Tetrazolium Assay (MTT); format: cell-based; conditions: Homo sapiens; RS4;11 cells, 48 hours exposure
Procedure: The cytotoxicity studies were carried out on the RS4;11 leukaemia tumour line.
The cells are distributed onto microplates and exposed to the test compounds for 48 hours. The cell viability is then quantified by a colorimetric assay, the Microculture Tetrazolium Assay (Cancer Res., 1987, 47, 939-942).

Structure (SMILES)	IC50 [1] [nM]	IC50 [2] [nM]
Cc1c(C(=O)N(c2ccc(O)cc2)c2cnc3c(ccn3C)c2)cn(-c2cc(Cl)ccc2C(=O)N2Cc3ccccc3C[C@H]2CN2CCOCC2)c1C [Example 209, 1-(5-Chloro-2-{[(3S)-3-(morpholin-4-ylmethyl)-3,4-dihydroisoquinolin-2(1H)-yl]carbonyl}phenyl)-N-(4-hydroxyphenyl)-4,5-dimethyl-N-(1-methyl-1H-pyrrolo[2,3-b]pyridin-5-yl)-1H-pyrrole-3-carboxamide hydrochloride]	4.1	62.9
Cc1cc(C(=O)N(c2ccccc2)c2ccc(O)cc2)cn1-c1cc(O)ccc1C(=O)N1Cc2ccccc2C[C@H]1CN1CCN(C)CC1 [Example 17, 1-(5-Hydroxy-2-{[(3S)-3-[(4-methylpiperazin-1-yl)methyl]-3,4-dihydroisoquinolin-2(1H)-yl]carbonyl}phenyl)-N-(4-hydroxyphenyl)-5-methyl-N-phenyl-1H-pyrrole-3-carboxamide]	11.4	1010
CN1CCN(C[C@@H]2Cc3ccccc3CN2C(=O)c2ccc(Cl)cc2-n2cc(C(=O)N(c3ccc(O)cc3)c3ccc4[nH]ccc4c3)c3ccccc32)CC1 [Example 72, 1-(5-Chloro-2-{[(3S)-3-[(4-methylpiperazin-1-yl)methyl]-3,4-dihydroisoquinolin-2(1H)-yl]carbonyl}phenyl)-N-(4-hydroxyphenyl)-N-(1H-indol-5-yl)-1H-indole-3-carboxamide]	4.5	43.4
CN1CCN(C[C@@H]2Cc3ccccc3CN2C(=O)c2ccc(Cl)cc2-n2cc(C(=O)N(c3ccc(O)cc3)c3ccc(Cl)cc3)c3ccccc32)CC1 [Example 76, 1-(5-Chloro-2-{[(3S)-3-[(4-methylpiperazin-1-yl)methyl]-3,4-dihydroisoquinolin-2(1H)-yl]carbonyl}phenyl)-N-(4-chlorophenyl)-N-(4-hydroxyphenyl)-1H-indole-3-carboxamide]	8.7	151

Second part, led by results:

IC50 [1] [nM]	Structure (SMILES)	IC50 [2] [nM]
4.4	Cc1cc(C(=O)N(c2ccc(O)cc2)c2ccc3[nH]ccc3c2)cn1-c1cc2c(cc1C(=O)N1Cc3ccccc3C[C@H]1CN1CCN(C)CC1)OCO2 [Example 87, N-(4-Hydroxyphenyl)-N-(1H-indol-5-yl)-5-methyl-1-(6-{[(3S)-3-[(4-methylpiperazin-1-yl)methyl]-3,4-dihydroisoquinolin-2(1H)-yl]carbonyl}-1,3-benzodioxol-5-yl)-1H-pyrrole-3-carboxamide]	138
7.5	Cc1cc(C(=O)N(c2ccc(O)cc2)c2ccc(Cl)cc2)cn1-c1cc(Br)ccc1C(=O)N1Cc2ccccc2C[C@H]1CN1CCN(C)CC1 [Example 62, 1-(5-Bromo-2-{[(3S)-3-[(4-methylpiperazin-1-yl)methyl]-3,4-dihydroisoquinolin-2(1H)-yl]carbonyl}phenyl)-N-(4-chlorophenyl)-N-(4-hydroxyphenyl)-5-methyl-1H-pyrrole-3-carboxamide]	205
12.1	Cc1cc(C(=O)N(c2ccc(O)cc2)c2ccc3c(ccn3CCN3CCOCC3)c2)cn1-c1cc2c(cc1C(=O)N1Cc3ccccc3C[C@H]1C)OCO2 [Example 116, N-(4-Hydroxyphenyl)-5-methyl-1-(6-{[(3R)-3-methyl-3,4-dihydroisoquinolin-2(1H)-yl]carbonyl}-1,3-benzodioxol-5-yl)-N-{1-[2-(morpholin-4-yl)ethyl]-1H-indol-5-yl}-1H-pyrrole-3-carboxamide hydrochloride]	131
9.8	CN1CCN(C[C@@H]2Cc3ccccc3CN2C(=O)c2cc3c(cc2-n2cc(C(=O)N(c4ccccc4)c4ccc(O)cc4)c4ccc(F)cc42)OCO3)CC1 [Example 197, 6-Fluoro-N-(4-hydroxyphenyl)-1-{6-[(3S)-3-[(4-methylpiperazin-1-yl)methyl]-1,2,3,4-tetrahydroisoquinoline-2-carbonyl]-2H-1,3-benzodioxol-5-yl}-N-phenyl-1H-indole-3-carboxamide]	328
